Test results from patent publication US8269026B2, “Lupane derivatives useful for treating HIV” (priority 2008, dated 2012).

Test system: HIV-1 (HIVIIIB) replication in MT2 cell line
Experiment: HIV-1 replication in MT2 cell line with and without 30% human serum (viral RT activity in supernatant)
Type: cell-based
Conditions: Human immunodeficiency virus 1, MT2 cells, with 30% human serum, average IC50 if tested more than once, read-out: MT2 (HIVIIIB) with HS 30% IC50 range
How it was run: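 Read-out is supernatant reverse transcriptase activity on day 5 post-infection, giving IC50 and IC90. Compounds were titrated in complete medium ± 30% human serum, re-dosed after 3 days, on MT2 cells exposed for 3 h to HIVIIIB at MOI 0.5 then washed.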

Q: How did the IC50 turn out when `CC(C)C1=C2C3CCC4[C@@]5(C)CC[C@H](OC(=O)CC(C)(C)C(=O)O)C(C)(C)C5CC[C@@]4(C)[C@]3(C)CC[C@@]2(NC(=O)NC(C)(C)c2ccccc2)CC1=O` (stereo partly drawn) [17-63, 3β-O-(3′,3′-Dimethylsuccinyl)-17β-[N′-(1-methyl-1-phenyl-ethyl)-ureido]-21-oxolup-18-ene] was run?
A: < 199 nM

Q: With `CC(C)C1=C2C3CCC4[C@@]5(C)CC[C@H](OC(=O)CC(C)(C)C(=O)O)C(C)(C)C5CC[C@@]4(C)[C@]3(C)CC[C@@]2(NC(=O)OC2CCN(C(=O)OC(C)(C)C)CC2)CC1=O` (stereo partly drawn) [20-6, 3β-O-(3′,3′-Dimethylsuccinyl)-17β-[(1-carboxylic acid tert-butyl ester)-piperidine-4-oxycarbonylamino]-21-oxolup-18-ene] as the compound, how does the IC50 read?
A: < 199 nM

Q: How did the IC50 turn out when `CC(C)C1=C2C3CCC4[C@@]5(C)CC[C@H](OC(=O)CC(C)(C)C(=O)O)C(C)(C)C5CC[C@@]4(C)[C@]3(C)CC[C@@]2(NC(=O)NCC2CCN(C)CC2)CC1=O` (stereo partly drawn) [17-28, 3β-O-(3′,3′-Dimethylsuccinyl)-17β-[N′-(1-methyl-piperidin-4-ylmethyl)-ureido]-21-oxolup-18-ene] was run?
A: > 1000 nM

Q: For `CC(C)C1=C2[C@H]3CC[C@@H]4[C@@]5(C)CC[C@H](OC(=O)CC(C)(C)C(=O)O)C(C)(C)[C@@H]5CC[C@@]4(C)[C@]3(C)CC[C@@]2(NC(=O)OC(C)(C)C)CC1=O` [14-1, 3β-O-(3′,3′-Dimethylsuccinyl)-17β-tert-butyloxycarbonylamino-21-oxolup-18-ene], which IC50 is on record?
A: < 199 nM

Q: With `CC(C)C1=C2C3CCC4[C@@]5(C)CC[C@H](OC(=O)CC(C)(C)C(=O)O)C(C)(C)C5CC[C@@]4(C)[C@]3(C)CC[C@@]2(NC(=O)N[C@H](C)C(F)(F)F)CC1=O` (stereo partly drawn) [17-51, 3β-O-(3′,3′-Dimethylsuccinyl)-17β-[N′-((R)-2,2,2-trifluoro-1-methyl-ethyl)-ureido]-21-oxolup-18-ene] as the compound, how does the IC50 read?
A: < 199 nM

Q: For `CC(C)C1=C2C3CCC4[C@@]5(C)CC[C@H](OC(=O)CC(C)(C)C(=O)O)C(C)(C)C5CC[C@@]4(C)[C@]3(C)CC[C@@]2(NC(=O)N2CCC(N)CC2)CC1=O` (stereo partly drawn) [17-24, 3β-O-(3′,3′-Dimethylsuccinyl)-17β-[(4-amino-piperidine-1-carbonyl)-amino]-21-oxolup-18-ene], which IC50 is on record?
A: 200 to 999 nM

Q: `CC(C)C1=C2C3CCC4[C@@]5(C)CC[C@H](OC(=O)CC(C)(C)C(=O)O)C(C)(C)C5CC[C@@]4(C)[C@]3(C)CC[C@@]2(NC(=O)OC2CCCC2)CC1=O` (stereo partly drawn) [20-4, 3β-O-(3′,3′-Dimethylsuccinyl)-17β-cyclopentyloxycarbonylamino-21-oxolup-18-ene] was tested. Which IC50 did it give?
A: < 199 nM

Q: With `CC(C)C1=C2C3CCC4[C@@]5(C)CC[C@H](OC(=O)[C@H]6CCC[C@@H](C(=O)O)C6)C(C)(C)C5CC[C@@]4(C)[C@]3(C)CC[C@@]2(N)CC1=O` (stereo partly drawn) [15-2, 3β-O-(cis-Cyclohexane-3′-carboxylic acid-1′-carboxyl)-17β-amino-21-oxolup-18-ene] as the compound, how does the IC50 read?
A: > 1000 nM

Q: With `CC(C)C1=C2C3CCC4[C@@]5(C)CC[C@H](OC(=O)CC(C)(C)C(=O)O)C(C)(C)C5CC[C@@]4(C)[C@]3(C)CC[C@@]2(NC(=O)N(C)C(C)C)CC1=O` (stereo partly drawn) [17-18, 3β-O-(3′,3′-Dimethylsuccinyl)-17β-[N′-isopropyl-N′-methyl-ureido]-21-oxolup-18-ene] as the compound, how does the IC50 read?
A: < 199 nM

Q: `CC(C)C1=C2[C@H]3CC[C@@H]4[C@@]5(C)CC[C@H](OC(=O)CC(C)(C)C(=O)O)C(C)(C)[C@@H]5CC[C@@]4(C)[C@]3(C)CC[C@@]2(NC(=O)Nc2ncccn2)CC1=O` [17-32, 3β-O-(3′,3′-Dimethylsuccinyl)-17β-(N′-pyrimidin-2-yl-ureido)-21-oxolup-18-ene] was tested. Which IC50 did it give?
A: < 199 nM

Q: How did the IC50 turn out when `CC(C)C1=C2C3CCC4[C@@]5(C)CC[C@H](OC(=O)CC(C)(C)C(=O)O)C(C)(C)C5CC[C@@]4(C)[C@]3(C)CC[C@@]2(NC(=O)NC2CCC(F)(F)CC2)CC1=O` (stereo partly drawn) [17-57, 3β-O-(3′,3′-Dimethylsuccinyl)-17β-[N′-(4,4-difluorocyclohexyl)ureido]-21-oxolup-18-ene] was run?
A: < 199 nM

Same assay, conditions: Human immunodeficiency virus 1, MT2 cells, without human serum, average IC50 if tested more than once, read-out: MT2 (HIVIIIB) IC50 range

Q: Which IC50 does the source give for `CC(C)C1=C2C3CCC4[C@@]5(C)CC[C@H](OC(=O)CC(C)(C)C(=O)O)C(C)(C)C5CC[C@@]4(C)[C@]3(C)CC[C@@]2(NC(=O)OC2CCN(C(=O)OC(C)(C)C)CC2)CC1=O` (stereo partly drawn) [20-6, 3β-O-(3′,3′-Dimethylsuccinyl)-17β-[(1-carboxylic acid tert-butyl ester)-piperidine-4-oxycarbonylamino]-21-oxolup-18-ene] here?
A: < 199 nM

Q: With `CC(C)C1=C2[C@H]3CC[C@@H]4[C@@]5(C)CC[C@H](OC(=O)CC(C)(C)C(=O)O)C(C)(C)[C@@H]5CC[C@@]4(C)[C@]3(C)CC[C@@]2(NC(=O)OC(C)(C)C)CC1=O` [14-1, 3β-O-(3′,3′-Dimethylsuccinyl)-17β-tert-butyloxycarbonylamino-21-oxolup-18-ene] as the compound, how does the IC50 read?
A: < 199 nM
